Counter-ions that a name gives are not always drawn.
What follows are molecules tested against T1, IGF-1R (Homo sapiens, UniProt P08069) (assay: IGF-1R inhibitory activity (kinase reaction, time-resolved fluoroimmunoassay)). Conditions: IGF-1R active recombinant enzyme, test compound 10 μmol/L.
T1 construct: purchased Upstate Co. 14-465
Type: biochemical
Protocol: The IGF-1R inhibitory activity was measured in the following manner.
As IGF-1R, active recombinant enzyme (Catalog No. 14-465) purchased from Upstate Co., was used. To 96 well plate (FIA-PLATE BLACK 96 well FALT-BOTTOM HIGH BINDING, Greiner Bio-one, Catalog No. 655077) coated with NeutroAvidin (Pierce, Catalog No. 31000), biotinylated polyglutamic acid-tyrosine peptide (Nihon Schering K.K., Catalog No. 61GT0BAA) was immobilized and then blocked with 0.25% gelatin to be used as a plate for measuring the kinase reaction. Separately was prepared a solution containing at final concentrations, IGF-1R (200 μg/L), Tris.HCl(pH 7.5)(20 mmol/L), Na3VO4(0.1 mmol/L), MgCl2(1 mmol/L), MnCl2(10 mmol/L), ATP(10 mmol/L), 2-mercaptoethanol (0.04%), BSA(Bovine Serum Albumin) (0.1%), DMSO(0.1%), test compound (10 μmol/L). The solution (each 50 μL) was added to the well of the plate for measuring the kinase reaction and then, enzyme reaction was performed for 30 minutes at 24° C. The plate was washed with TBS-T [10 mmol/L Tris Cl (pH 7.5), 150 mmol/L NaCl, 0.05% Tween 20 (Bio-Rad, Catalog No. 170-6531)] 4 times, then reacted with europium-labeled anti-phosphotyrosine antibody, further washed with TBS-T 4 times and then, measured with time-resolved fluoroimmunoassay (excitation wavelength 340 nm, measuring wavelength 615 nm). The value of a well to which the test compound had not been added was considered as 100% and that of a well where the enzyme and the test compound had not been added was considered as 0%. The relative activity (%) of the well which was added with enzyme and the test compound was measured and by subtracting the calculated value from 100, IGF-1R inhibitory activity of the test compound (%) was determined.

T1 sequence (P08069 959-1367 limits assumed): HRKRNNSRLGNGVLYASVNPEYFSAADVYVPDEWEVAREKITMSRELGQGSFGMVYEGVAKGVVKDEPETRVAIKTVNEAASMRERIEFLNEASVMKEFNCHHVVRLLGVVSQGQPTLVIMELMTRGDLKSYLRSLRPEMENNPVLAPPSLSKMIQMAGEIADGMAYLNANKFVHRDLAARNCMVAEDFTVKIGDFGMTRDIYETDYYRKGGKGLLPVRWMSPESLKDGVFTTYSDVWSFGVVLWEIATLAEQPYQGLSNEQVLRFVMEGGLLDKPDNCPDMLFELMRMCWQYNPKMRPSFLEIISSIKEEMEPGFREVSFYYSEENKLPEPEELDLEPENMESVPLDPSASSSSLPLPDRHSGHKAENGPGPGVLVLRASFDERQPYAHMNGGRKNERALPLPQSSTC

| SMILES | inhibition at 10 µM | inhibitory activity (%) at 10 μmol/L |
| --- | --- | --- |
| O=C(Nc1ccccc1/C=C/c1n[nH]c2ccccc12)c1ccc(CN2CCOCC2)cc1 [Compound 80, (E)-N-{2-[2-(1H-indazol-3-yl)vinyl]phenyl}-4-(morpholin-4-ylmethyl)benzamide] | 96.6% | – |
| O=C1C2=C(CCC2)C(=O)N1c1ccccc1/C=C/c1n[nH]c2ccccc12 [Compound 210, (E)-2-{2-[2-(1H-indazol-3-yl)vinyl]phenyl}-5,6-dihydro-4H-cyclopenta[c]pyrrole-1,3-dione] | 96.5% | – |
| CN(C)CCNCc1ccn(-c2ccccc2/C=C/c2n[nH]c3ccccc23)c1 [Compound 186, (E)-N′-(1-{2-[2-(1H-indazol-3-yl)vinyl]phenyl}-1H-pyrrol-3-ylmethyl)-N,N-dimethylethane-1,2-diamine] | 102% | – |
| O=C(Nc1ccccc1/C=C/c1n[nH]c2ccccc12)c1cc2ccccc2o1 [Compound 49, (E)-N-{2-[2-(1H-indazol-3-yl)vinyl]phenyl}benzofuran-2-carboxamide] | 103% | – |
| O=C1c2ccccc2C(=O)N1c1ccc(F)cc1/C=C/c1n[nH]c2ccccc12 [Compound 250, (E)-2-{4-fluoro-2-[2-(1H-indazol-3-yl)vinyl]phenyl}isoindole-1,3-dione] | 98.9% | – |
| O=C1c2ccncc2C(=O)N1c1ccccc1/C=C/c1n[nH]c2ccccc12 [Compound 198, (E)-2-{2-[2-(1H-indazol-3-yl)vinyl]phenyl}pyrrolo[3,4-c]pyridine-1,3-dione hydrochloride] | 87.2% | – |
| Cc1ccsc1C(=O)Nc1ccc(N2CCOCC2)cc1/C=C/c1n[nH]c2ccccc12 [Compound 225, (E)-N-{2-[2-(1H-indazol-3-yl)vinyl]-4-(morpholin-4-yl)phenyl}-3-methylthiophene-2-carboxamide hydrochloride] | 95% | – |
| O=c1[nH]c(-c2ccccc2/C=C/c2n[nH]c3ccccc23)no1 [Compound 178, (E)-3-{2-[2-(1H-indazol-3-yl)vinyl]phenyl}-4H-[1,2,4]oxadiazole-5-one] | 71.1% | – |
| O=C1CCCCN1c1ccccc1/C=C/c1n[nH]c2ccccc12 [Compound 206, (E)-1-{2-[2-(1H-indazol-3-yl)vinyl]phenyl}piperidin-2-one] | 101% | – |
| Cc1cc(CO)c(C)n1-c1ccccc1/C=C/c1n[nH]c2ccccc12 [Compound 191, (E)-1-{2-[2-(1H-indazol-3-yl)vinyl]phenyl}-2,5-dimethyl-1H-pyrrol-3-ylmethanol] | 102% | – |
| C(=C\c1n[nH]c2ccccc12)/c1ccccc1-c1nc2ccccc2o1 [Compound 183, (E)-2-{2-[2-(1H-indazol-3-yl)vinyl]phenyl}benzoxazole] | 59.1% | – |
| O=C1c2cc3ccccc3cc2C(=O)N1c1ccccc1/C=C/c1n[nH]c2ccccc12 [Compound 202, (E)-2-{2-[2-(1H-indazol-3-yl)vinyl]phenyl}benzo[f]isoindole-1,3-dione] | 85.9% | – |
| COc1ccccc1/C=C/c1n[nH]c2ccccc12 [Compound 135, (E)-3-[2-(2-methoxyphenyl)vinyl]-1H-indazole] | 86.6% | – |
| C(=C\c1n[nH]c2ccccc12)/c1ccccc1Nc1ncccn1 [Compound 163, (E)-N-{2-[2-(1H-indazol-3-yl)vinyl]phenyl}-2-pyrimidylamine] | 100% | – |
| CN(C)C(=O)c1nc(-c2ccccc2/C=C/c2n[nH]c3ccccc23)no1 [Compound 176, (E)-N,N-dimethyl-3-{2-[2-(1H-indazol-3-yl)vinyl]phenyl}[1,2,4]oxadiazole-5-carboxamide] | 100% | – |
| O=C1c2cccc(F)c2C(=O)N1c1ccccc1/C=C/c1n[nH]c2ccccc12 [Compound 199, (E)-4-fluoro-2-{2-[2-(1H-indazol-3-yl)vinyl]phenyl}isoindole-1,3-dione] | 99.4% | – |
| O=C(c1cnc(Nc2ccccc2/C=C/c2n[nH]c3ccccc23)s1)N1CCC(O)CC1 [Compound 171, (E)-4-hydroxy-1-{2-[2-(2-(1H-indazol-3-yl)vinyl)phenylamino]thiazole-5-ylcarbonyl}piperidine] | 87.2% | – |
| Nc1cccc2c1CN(c1cc(CN3CCN(CCCO)CC3)ccc1/C=C/c1n[nH]c3ccccc13)C2=O [Compound 314, (E)-4-amino-2-{5-[4-(3-hydroxypropyl)piperazin-1-ylmethyl]-2-[2-(1H-indazol-3-yl)vinyl]phenyl}-2,3-dihydroisoindole-1-one] | 102% | – |
| CS(=O)(=O)c1ccc(C(=O)Nc2ccccc2/C=C/c2n[nH]c3ccccc23)s1 [Compound 354, (E)-N-{2-[2-(1H-indazol-3-yl)vinyl]phenyl}-5-(methylsulfonyl)thiophene-2-carboxamide] | 97.1% | – |
| O=C1c2ccccc2C(=O)N1c1cccc(Cl)c1/C=C/c1n[nH]c2ccccc12 [Compound 154, (E)-2-{3-chloro-2-[2-(1H-indazol-3-yl)vinyl]phenyl}isoindole-1,3-dione] | 97.1% | – |
| CC1=C(C)C(=O)N(c2ccccc2/C=C/c2n[nH]c3ccccc23)C1=O [Compound 204, (E)-1-{2-[2-(1H-indazol-3-yl)vinyl]phenyl}-3,4-dimethylpyrrole-2,5-dione] | 99.8% | – |
| OCCCc1nc(-c2ccccc2/C=C/c2n[nH]c3ccccc23)no1 [Compound 180, (E)-3-(3-{2-[2-(1H-indazol-3-yl)vinyl]phenyl}[1,2,4]oxadiazol-5-yl)propan-1-ol] | 98.1% | – |
| O=C(Nc1nc[nH]n1)c1ccccc1/C=C/c1n[nH]c2ccccc12 [Compound 139, (E)-2-[2-(1H-indazol-3-yl)vinyl]-N-(1H-[1,2,4]triazol-3-yl)benzamide] | 93.9% | – |
| CN(C)/C=N/c1ccccc1C=Cc1n[nH]c2ccccc12 [Compound 75, (E)-N-{2-[2-(1H-indazol-3-yl)vinyl]phenyl}-N,N-dimethylformamidine] | – | 90.4% |
| C(=C\c1n[nH]c2ccccc12)/c1ccccc1-n1cccc1 [Compound 162, (E)-3-{2-[2-(pyrrol-1-yl)phenyl]vinyl}-1H-indazole] | 102% | – |
| C(=C\c1n[nH]c2ccccc12)/c1ccccc1-n1ccc(CNCC2CC2)c1 [Compound 189, (E)-3-cyclopropylmethylaminomethyl-1-{2-[2-(1H-indazol-3-yl)vinyl]phenyl}pyrrole] | 102% | – |
| Cc1ccsc1C(=O)Nc1cc(C(=O)N2CC[C@@H](N)C2)ccc1/C=C/c1n[nH]c2ccccc12 [Compound 221, (E)-(R)—N-{2-[2-(1H-indazol-3-yl)vinyl]-5-(3-aminopyrrolidin-1-ylcarbonyl)phenyl}-3-methylthiophene-2-carboxamide hydrochloride] | 95.8% | – |
| C(=C\c1n[nH]c2ccccc12)/c1ccccc1NCc1ccccc1 [Compound 26, (E)-N-benzyl-N-{2-[2-(1H-indazol-3-yl)vinyl]phenyl}amine] | 67.8% | – |

Same assay, conditions: test compound 10 μmol/L

| SMILES | inhibition at 10 µM | inhibitory activity (%) at 10 μmol/L |
| --- | --- | --- |
| COCc1ccc(/C=C/c2n[nH]c3ccccc23)c(NC(=O)c2sccc2C)c1 [Compound 121, (E)-N-{2-[2-(1H-indazol-3-yl)vinyl]-5-(methoxymethyl)phenyl}-3-methylthiophene-2-carboxamide] | 98.6% | – |
| COc1cccc(/C=C/c2n[nH]c3ccccc23)c1N [Compound 93, (E)-2-[2-(1H-indazol-3-yl)vinyl]-6-methoxyphenylamine] | 70.6% | – |
| Cc1ccsc1C(=O)Nc1cc(C(=O)N2CCC3(CC2)OCCO3)ccc1/C=C/c1n[nH]c2ccccc12.Cl [Compound 129, (E)-N-{5-(1,4-dioxa-8-azaspiro[4,5]decane-8-carbonyl)-2-[2-(1H-indazol-3-yl)vinyl]phenyl}-3-methylthiophene-2-carboxamide hydrochloride] | – | 99.9% |
| Cc1ccsc1C(=O)Nc1cc(C(=O)N2CCN(C)CC2)ccc1/C=C/c1n[nH]c2ccccc12.Cl [Compound 128, (E)-N-{2-[2-(1H-indazol-3-yl)vinyl]-5-(4-methylpiperazine-1-ylcarbonyl)phenyl}-3-methylthiophene-2-carboxamide hydrochloride] | – | 98.8% |
| CCN(CC)C(=O)c1ccc(/C=C/c2n[nH]c3ccccc23)c(NC(=O)c2sccc2C)c1.Cl [Compound 124, (E)-N-{5-(N,N-diethylcarbamoyl)-2-[2-(1H-indazol-3-yl)vinyl]phenyl}-3-methylthiophene-2-carboxamide hydrochloride] | – | 98.9% |
| Cn1cccc1C(=O)Nc1cc(C(=O)N2CCOCC2)ccc1/C=C/c1n[nH]c2ccccc12 [Compound 123, (E)-N-{2-[2-(1H-indazol-3-yl)vinyl]-5-(morpholin-4-ylcarbonyl)phenyl}-1-methylpyrrole-2-carboxamide] | 95.9% | – |
| Cc1ccsc1C(=O)Nc1cc(C(=O)NCCO)ccc1/C=C/c1n[nH]c2ccccc12 [Compound 114, (E)-N-{5-[N-(2-hydroxyethyl)carbamoyl]-2-[2-(1H-indazol-3-yl)vinyl]phenyl}-3-methylthiophene-2-carboxamide] | 92% | – |

Reference: patent US7605272B2, “IGF-1R inhibitor” (Kyowa Hakko Kirin Co., Ltd., priority 2005, dated 2009)
